The target in this test is recombinant DYRK1A kinase (Homo sapiens (Human), UniProt Q13627). Description: DYRK1A kinase assay (Ser/Thr 18 peptide Z-lyte FRET). Type of test: biochemical. The following applies: DYRK1A kinase activity, Z-lyte Ser/Thr 18 peptide, 15 μM ATP; method text calls the value IC50; read-out: EC50 (the source's name). Here is the method:
Representative compounds were screened using the assay procedure for DYRK1A kinase activity as described below.
Each compound was dissolved in DMSO as a 10 mM stock and used to prepare compound source plates. Serial dilution (1:3, 11-point dose-response curves from 10 μM to 0.00016 μM) and compound transfer was performed using the ECHO 550 (Labcyte, Sunnyvale, CA) into 1536-well black-walled round bottom plates (Coming).
The DYRK1A kinase assay was run using the Ser/Thr 18 peptide Z-lyte assay kit according to manufacturer's instructions (Life Technologies-a Division of Thermo-Fisher). This is a non-radioactive assay using fluorescence resonance energy transfer (FRET) between coumarin and fluorescein to detect kinase activity which is represented as a ratio of coumarin emission/fluorescein emission.
Briefly, recombinant DYRK1A kinase, ATP and Ser/Thr peptide 18 were prepared in 1X Kinase buffer to final concentrations of 0.25 μg/mL, 15 μM, and 4 μM respectively. The mixture was allowed to incubate with the representative compounds for one hour at room temperature. All reactions were performed in duplicate. Unphosphorylated (“0% Control”) and phosphorylated (“100% control”) forms of Ser/Thr 18 served as control reactions. Additionally, an 11-point dose-response curve of Staurosporine (luM top) was run to serve as a positive compound control.
After incubation, Development Reagent A was diluted in Development Buffer then added to the reaction and allowed to further incubate for one hour at room temperature. The plate was read at Ex 400 Em 455 to detect the coumarin signal and Ex 400 Em 520 to measure the signal (EnVision Multilabel Plate Reader, PerkinElmer).
The Emission ratio (Em) was calculated as a ratio of the coumarin (C) emission signal (at 445 nm)/Fluorescein (F) emission signal (at 520 nm). The percent phosphorylation was then calculated using the following formula: [1−((Em ratio X F100%)-C100%)/((C0%-C100%) +(Em ratio X (F100%−F0%)))]. Dose-response curves were generated, and inhibitory concentration (IC50) values were calculated using non-linear regression curve fit in the Dotmatics' Studies Software (Bishops Stortford, UK).
For the molecule `COc1nc(N[C@H]2CC[C@@H](OC(F)F)CC2)nn2ccc(-c3cnc4nccn4c3)c12` [Compound 250, N-(cis-4-(Difluoromethoxy)cyclohexyl)-5-(imidazo[1,2-a]pyrimidin-6-yl)-4-methoxypyrrolo[2,1-f][1,2,4]triazin-2-amine], the IC50 worked out at 0.6 nM. As for `COc1nc(N[C@H]2CC[C@](C)(O)CC2)nn2ccc(-c3ccc4nnn(/C=C/F)c4c3)c12` [Compound 672, (1r,4r)-4-((5-(1-((E)-2-fluorovinyl)-1H-benzo[d][1,2,3]triazol-6-yl)-4-methoxypyrrolo[2,1-f][1,2,4]triazin-2-yl)amino)-1-methylcyclohexan-1-ol], the figure is 5.9 nM; as for `COc1nc(N[C@H]2C[C@](C)(NC(C)=O)C2)nn2ccc(-c3ccn4nccc4c3)c12` [Compound 96, N-(trans-3-((4-Methoxy-5-(pyrazolo[1,5-a]pyridin-5-yl)pyrrolo[2,1-f][1,2,4]triazin-2-yl)amino)-1-methylcyclobutyl)acetamide], 1 nM; as for `[2H]C([2H])([2H])Oc1nc(N[C@H]2C[C@](C)(O)C2)nn2ccc(-c3ccc4nccnc4c3)c12` [Compound 331, trans-3-((4-(Methoxy-d3)-5-(quinoxalin-6-yl)pyrrolo[2,1-f][1,2,4]triazin-2-yl)amino)-1-methylcyclobutan-1-ol], 1.2 nM. As for `COc1nc(NCC2(C)COC2)nn2ccc(-c3ccc4nnn(CC(F)F)c4c3)c12` [Compound 1144, 5-(1-(2,2-Difluoroethyl)-1H-benzo[d][1,2,3]triazol-6-yl)-4-methoxy-N-((3-methyloxetan-3-yl)methyl)pyrrolo[2,1-f][1,2,4]triazin-2-amine], the figure is 2 nM; as for `COc1nc(N[C@@H]2CCN(C(=O)C3(C#N)CC3)CC2(F)F)nn2ccc(-c3ccc4nnn(CC(F)F)c4c3)c12` [Compound 791, (R)-1-(4-((5-(1-(2,2-Difluoroethyl)-1H-benzo[d][1,2,3]triazol-6-yl)-4-methoxypyrrolo[2,1-f][1,2,4]triazin-2-yl)amino)-3,3-difluoropiperidine-1-carbonyl)cyclopropane-1-carbonitrile], 2.2 nM; as for `CN1C[C@H](F)[C@H](Nc2nc(O)c3c(-c4cnc5nccn5c4)ccn3n2)C1` [Compound 261, 2-(((3R,4S)-4-Fluoro-1-methylpyrrolidin-3-yl)amino)-5-(imidazo[1,2-a]pyrimidin-6-yl)pyrrolo[2,1-f][1,2,4]triazin-4-ol], 153 nM. With `COc1nc(N[C@@H]2C[C@@H]3CN(C(C)=O)C[C@@H]3C2)nn2ccc(-c3ccc4nccnc4c3)c12` [Compound 388, 1-((3aR,5r,6aS)-5-((4-Methoxy-5-(quinoxalin-6-yl)pyrrolo[2,1-f][1,2,4]triazin-2-yl)amino)hexahydrocyclopenta[c]pyrrol-2(1H)-yl)ethan-1-one] the figure was 1.2 nM; with `COc1nc(NC2CCC3(CC2)COC3)nn2ccc(-c3ccn4nccc4c3)c12` [Compound 395, 4-Methoxy-5-(pyrazolo[1,5-a]pyridin-5-yl)-N-(2-oxaspiro[3.5]nonan-7-yl)pyrrolo[2,1-f][1,2,4]triazin-2-amine], 6.2 nM. `CCN1CC[C@H](Nc2nc(OC)c3c(-c4ccc5nnn(CC(F)F)c5c4)ccn3n2)[C@H](F)C1` [Compound 755, 5-(1-(2,2-Difluoroethyl)-1H-benzo[d][1,2,3]triazol-6-yl)-N-((3R,4S)-1-ethyl-3-fluoropiperidin-4-yl)-4-methoxypyrrolo[2,1-f][1,2,4]triazin-2-amine]: the IC50 turned out to be 2.3 nM. With `COc1nc(NC23CCC(O)(CC2)C3)nn2ccc(-c3cnc4nccn4c3)c12` [Compound 978, 4-((5-(Imidazo[1,2-a]pyrimidin-6-yl)-4-methoxypyrrolo[2,1-f][1,2,4]triazin-2-yl)amino)bicyclo[2.2.1]heptan-1-ol] the figure was 2.4 nM. With `COc1nc(N[C@H]2CC[C@@H](NC(C)=O)CC2)nn2cc(F)c(-c3ccc4ncccc4c3)c12` [Compound 1054, N-(cis-4-((6-Fluoro-4-methoxy-5-(quinolin-6-yl)pyrrolo[2,1-f][1,2,4]triazin-2-yl)amino)cyclohexyl)acetamide] the figure was 2 nM; with `COc1nc(N[C@H]2C[C@](C)(NC(C)=O)C2)nn2ccc(-c3ccc4nc(C)n(CCO)c4c3)c12` [Compound 171, N-(trans-3-((5-(1-(2-Hydroxyethyl)-2-methyl-1H-benzo[d]imidazol-6-yl)-4-methoxypyrrolo[2,1-f][1,2,4]triazin-2-yl)amino)-1-methylcyclobutyl)acetamide], 2.9 nM. As for `[2H]C([2H])([2H])Oc1nc(N[C@@H]2CN(C(C)=O)C[C@@H]2F)nn2ccc(-c3ccc4nccnc4c3)c12` [Compound 353, 1-((3S,4R)-3-Fluoro-4-((4-(methoxy-d3)-5-(quinoxalin-6-yl)pyrrolo[2,1-f][1,2,4]triazin-2-yl)amino)pyrrolidin-1-yl)ethan-1-one], the figure is 2.2 nM; as for `COCCNC(=O)[C@]1(C)C[C@@H](Nc2nc(OC)c3c(-c4ccc5nnn(C)c5c4)ccn3n2)C1` [Compound 214, trans-3-((4-Methoxy-5-(1-methyl-1H-benzo[d][1,2,3]triazol-6-yl)pyrrolo[2,1-f][1,2,4]triazin-2-yl)amino)-N-(2-methoxyethyl)-1-methylcyclobutane-1-carboxamide], 2.2 nM.

For `COc1nc(N[C@H]2CCN(C)C[C@H]2F)nn2ccc(-c3ccc4nnn(CC(F)F)c4c3)c12` [Compound 754, 5-(1-(2,2-Difluoroethyl)-1H-benzo[d][1,2,3]triazol-6-yl)-N-((3R,4S)-3-fluoro-1-methylpiperidin-4-yl)-4-methoxypyrrolo[2,1-f][1,2,4]triazin-2-amine], the IC50 is 1.7 nM.

As to `COc1nc(NC2CCC3(CC2)CN(C(C)=O)C3)nn2ccc(-c3ccc4nccnc4c3)c12` [Compound 389, 1-(7-((4-Methoxy-5-(quinoxalin-6-yl)pyrrolo[2,1-f][1,2,4]triazin-2-yl)amino)-2-azaspiro[3.5]nonan-2-yl)ethan-1-one], the IC50 amounted to 1.3 nM.

Regarding `COc1nc(N[C@H]2CCN(C3CCC3)CC2(F)F)nn2ccc(-c3ccc4nc(C)n(CC(F)F)c4c3)c12` [Compound 141, (S)—N-(1-Cyclobutyl-3,3-difluoropiperidin-4-yl)-5-(1-(2,2-difluoroethyl)-2-methyl-1H-benzo[d]imidazol-6-yl)-4-methoxypyrrolo[2,1-f][1,2,4]triazin-2-amine], the IC50 amounted to 21.8 nM. With `COc1nc(N[C@H]2CCN(C(=O)C3(C#N)CC3)C[C@H]2F)nn2ccc(-c3ccc4nnn(CC(F)F)c4c3)c12` [Compound 776, 1-((3R,4S)-4-((5-(1-(2,2-Difluoroethyl)-1H-benzo[d][1,2,3]triazol-6-yl)-4-methoxypyrrolo[2,1-f][1,2,4]triazin-2-yl)amino)-3-fluoropiperidine-1-carbonyl)cyclopropane-1-carbonitrile] the figure was 0.5 nM; with `COc1nc(N[C@H]2CCN(CCF)C[C@H]2F)nn2ccc(-c3ccc4ncccc4c3)c12` [Compound 314, N-((3R,4S)-3-Fluoro-1-(2-fluoroethyl)piperidin-4-yl)-4-methoxy-5-(quinolin-6-yl)pyrrolo[2,1-f][1,2,4]triazin-2-amine], 4.1 nM.

The values are drawn from patent US20240002391A1, “4-ALKOXYPYRROLO[2,1-F][1,2,4]TRIAZINES AND PREPARATION AND USES THEREOF” (BioSplice Therapeutics, Inc., priority 2022, published 2024).
